Measurements from ChEMBL document CHEMBL6109148, “Development of Squaramides as Allosteric Modulators of the CB1 Receptor: Synthesis, Computational Studies, Biological Characterization, and Effects against Cocaine-Induced Behavioral Sensitization and Reinstatement in Rats” (J Med Chem, 2025).

Tests used:
[1] = target: T1, Cannabinoid receptor 1 (Homo sapiens, UniProt P21554); assay: Negative allosteric modulation of human CB1 receptor stably expressed in CHO-RD-HGA16 cells assessed as inhibition of CP55940-induced intracellular calcium mobilization incubated for 15 mins by FLIPR assay; assay type: functional, cell-based
[2] = target: T1, Cannabinoid receptor 1; assay: Agonist activity at human CB1 receptor stably expressed in CHO-RD-HGA16 cells assessed as increase in intracellular calcium mobilization at 10 uM by FLIPR assay relative to CP55940; assay type: functional, cell-based
[3] = target: Cannabinoid receptor 2 (Homo sapiens) (UniProt P34972); assay: Antagonist activity at human CB2 receptor stably expressed in CHO-RD-HGA16 cells assessed as inhibition of CP55940-induced intracellular calcium mobilization at 10 uM by FLIPR assay relative to CP55940; assay type: functional, cell-based; parameters: scale not given: the % may be the effect or the level left
[4] = target: Cannabinoid receptor 1 (Mus musculus, UniProt P47746); assay: Negative allosteric modulation of CD-1 mouse CB1 receptor extracted from cerebellum membrane in presence of [35S]GTP-gammaS; assay type: cell membranes
[5] = target: T1, Cannabinoid receptor 1; assay: Negative allosteric modulation of human CB1 extracted from HEK293 cell membrane assessed as increase in forskolin-induced cAMP production preincubated for 15 mins followed by forskolin/CP55940 addition by BRET CAMYEL cAMP assay
[6] = target: T1, Cannabinoid receptor 1; assay: Negative allosteric modulation of human CB1 extracted from HEK293 cell membrane assessed as specific binding of [3H]CP55940 incubated for 90 mins; assay type: cell membranes
[7] = Stability in human liver microsomes assessed as half life at 1 uM preincubated for 10 mis followed by NADPH addition measured for 15 to 60 mins by LC-MS/MS analysis; assay type: ADME, Microsome; conditions: time 25-70 min
[8] = Stability in human liver microsomes assessed as clearance at 1 uM preincubated for 10 mis followed by NADPH addition measured for 15 to 60 mins by LC-MS/MS analysis; assay type: ADME, Microsome; conditions: time 25-70 min
[9] = Stability in human hepatocytes assessed as half life at 1 uM measured up to 120 mins by LC/MS/MS analysis; assay type: ADME, cell-based, Hepatocyte; conditions: 2 h
[10] = Stability in human hepatocytes assessed as clearance at 1 uM measured up to 120 mins by LC/MS/MS analysis; assay type: ADME, cell-based, Hepatocyte; conditions: 2 h
[11] = Kinetic solubility of compound in PBS incubated for 2 hrs by LC-MS/MS analysis; assay type: physicochemical; conditions: read-out: Kinetic_solubility
[12] = Apparent permeability across apical to basal side in MDCK-MDR1 cells at 10 uM measured for 30 to 90 mins by LC-MS/MS analysis; assay type: ADME, cell-based, Canis lupus familiaris; conditions: dog, mdck-mdr1, 10 µM, time 30-90 min
[13] = Apparent permeability across basal to apical side in MDCK-MDR1 cells at 10 uM measured for 30 to 90 mins by LC-MS/MS analysis; assay type: ADME, cell-based, Canis lupus familiaris; conditions: dog, mdck-mdr1, 10 µM, time 30-90 min
[14] = Protein binding in rat plasma at 1 uM incubated for 6 hrs by LC-MS/MS analysis; assay type: ADME, cell-free
[15] = Protein binding in rat brain at 1 uM incubated for 6 hrs by LC-MS/MS analysis; assay type: ADME, tissue-based
[16] = Protein binding in human plasma at 1 uM incubated for 6 hrs by LC-MS/MS analysis; assay type: ADME, cell-free
[17] = Drug concentration in plasma of Sprague-Dawley rat at 1 mg/kg, iv measured after 5 mins by LC-MS/MS analysis; assay type: ADME, organism-based
[18] = Drug excretion in Sprague-Dawley rat at 1 mg/kg, iv measured after 4 hrs by LC-MS/MS analysis; assay type: ADME, organism-based; conditions: in vivo
[19] = Half life in Sprague-Dawley rat at 1 mg/kg, iv measured for 0.08 to 8 hrs by LC-MS/MS analysis; assay type: ADME, organism-based; conditions: in vivo, time 0.08-8 hrs
[20] = Drug concentration in plasma of Sprague-Dawley rat at 5.6 mg/kg, ip measured after 0.25 hrs by LC-MS/MS analysis; assay type: ADME, organism-based
[21] = Drug concentration in plasma of Sprague-Dawley rat at 5.6 mg/kg, ip measured after 0.5 hrs by LC-MS/MS analysis; assay type: ADME, organism-based
[22] = Drug concentration in plasma of Sprague-Dawley rat at 5.6 mg/kg, ip measured after 1 hr by LC-MS/MS analysis; assay type: ADME, organism-based
[23] = Drug concentration in plasma of Sprague-Dawley rat at 5.6 mg/kg, ip measured after 8 hrs by LC-MS/MS analysis; assay type: ADME, organism-based
[24] = Drug concentration in brain of Sprague-Dawley rat at 5.6 mg/kg, ip measured after 0.25 hrs by LC-MS/MS analysis; assay type: ADME, organism-based; conditions: read-out: Ct
[25] = Drug concentration in brain of Sprague-Dawley rat at 5.6 mg/kg, ip measured after 0.5 hrs by LC-MS/MS analysis; assay type: ADME, organism-based; conditions: read-out: Ct
[26] = Drug concentration in brain of Sprague-Dawley rat at 5.6 mg/kg, ip measured after 1 hr by LC-MS/MS analysis; assay type: ADME, organism-based; conditions: read-out: Ct
[27] = Drug concentration in brain of Sprague-Dawley rat at 5.6 mg/kg, ip measured after 8 hrs by LC-MS/MS analysis; assay type: ADME, organism-based; conditions: read-out: Ct
[28] = target: T1, Cannabinoid receptor 1; assay: Negative allosteric modulation of human CB1 receptor extracted from HEK293 cell membrane in presence of [35S]GTP-gammaS; assay type: cell membranes

Chain of Cannabinoid receptor 2 (Homo sapiens) (P34972 whole entry): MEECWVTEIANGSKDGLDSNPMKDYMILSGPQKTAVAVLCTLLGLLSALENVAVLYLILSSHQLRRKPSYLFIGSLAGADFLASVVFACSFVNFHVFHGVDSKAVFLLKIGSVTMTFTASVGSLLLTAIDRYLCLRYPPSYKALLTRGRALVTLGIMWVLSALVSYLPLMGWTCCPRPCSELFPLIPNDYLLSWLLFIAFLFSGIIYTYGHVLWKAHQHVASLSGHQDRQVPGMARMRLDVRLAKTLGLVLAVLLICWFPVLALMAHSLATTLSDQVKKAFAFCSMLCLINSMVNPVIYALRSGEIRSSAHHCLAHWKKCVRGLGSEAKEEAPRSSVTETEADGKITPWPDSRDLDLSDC
T1 sequence (P21554 whole entry): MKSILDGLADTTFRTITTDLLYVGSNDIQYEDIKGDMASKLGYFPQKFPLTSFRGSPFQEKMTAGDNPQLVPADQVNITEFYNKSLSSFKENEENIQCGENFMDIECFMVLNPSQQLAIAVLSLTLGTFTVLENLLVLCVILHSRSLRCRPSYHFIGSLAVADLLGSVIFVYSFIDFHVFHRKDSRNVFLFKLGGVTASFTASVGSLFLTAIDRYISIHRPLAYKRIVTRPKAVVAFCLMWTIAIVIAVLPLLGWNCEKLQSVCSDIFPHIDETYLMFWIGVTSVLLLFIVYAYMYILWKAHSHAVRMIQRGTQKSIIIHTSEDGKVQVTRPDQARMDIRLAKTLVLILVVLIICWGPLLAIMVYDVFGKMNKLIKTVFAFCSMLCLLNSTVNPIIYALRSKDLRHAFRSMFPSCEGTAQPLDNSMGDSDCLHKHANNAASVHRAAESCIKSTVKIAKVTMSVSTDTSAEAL
Chain of Cannabinoid receptor 1 (Mus musculus, UniProt P47746) (P47746 whole entry): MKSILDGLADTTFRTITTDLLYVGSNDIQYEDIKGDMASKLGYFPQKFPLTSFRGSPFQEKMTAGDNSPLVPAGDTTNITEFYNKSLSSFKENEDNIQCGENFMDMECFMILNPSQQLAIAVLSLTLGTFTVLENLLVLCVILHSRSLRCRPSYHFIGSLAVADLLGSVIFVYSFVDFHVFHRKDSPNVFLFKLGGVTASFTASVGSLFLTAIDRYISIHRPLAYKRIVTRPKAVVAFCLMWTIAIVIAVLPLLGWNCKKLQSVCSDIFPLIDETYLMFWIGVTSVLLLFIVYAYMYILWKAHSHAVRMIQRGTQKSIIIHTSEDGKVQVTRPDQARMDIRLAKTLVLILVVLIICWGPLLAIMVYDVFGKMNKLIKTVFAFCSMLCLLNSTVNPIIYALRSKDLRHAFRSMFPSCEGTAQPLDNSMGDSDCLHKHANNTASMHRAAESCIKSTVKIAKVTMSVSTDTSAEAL

Compound `O=c1c(NCCc2cccc(C(F)(F)F)c2)c(Nc2ccc(Cl)cc2)c1=O` has an IC50 [1] of 0.339 µM, an Activity [2] of under 30% and an Activity [3] of under 50%.

Work on `O=c1c(NCCN2CCCCC2)c(Nc2ccc(Cl)cc2)c1=O` yielded an Activity [2] of under 30% and an Activity [3] of under 50%.

`CC(=O)c1ccc(CCNc2c(Nc3ccc(Cl)cc3)c(=O)c2=O)cc1` gave an IC50 [1] of over 10 µM, an Activity [2] of under 30% and an Activity [3] of under 50%.

For `O=c1c(NCCc2ccccn2)c(Nc2ccc(Cl)cc2)c1=O`, the Activity [2] was under 30% and the Activity [3] was under 50%.

`O=c1c(NCCc2ccc(Br)cc2)c(Nc2ccc(Cl)cc2)c1=O` showed an IC50 [1] of over 10 µM, an Activity [2] of under 30% and an Activity [3] of under 50%.

Work on `O=c1c(NCCc2cccs2)c(Nc2ccc(Cl)cc2)c1=O` yielded an IC50 [1] of 0.692 µM, an Activity [2] of under 30% and an Activity [3] of under 50%.

`O=c1c(NCCc2ccccc2)c(Nc2ccc(Cl)cc2)c1=O` showed an IC50 [1] of 0.204 µM, an Activity [2] of under 30% and an Activity [3] of under 50%.

For `O=c1c(NCc2ccccc2)c(Nc2ccc(Cl)cc2)c1=O`, the IC50 [1] was over 10 µM, the Activity [2] was under 30% and the Activity [3] was under 50%.

`O=c1c(NCCc2ccc(N3CCCCC3)cc2)c(Nc2ccc(Cl)cc2)c1=O` gave an Activity [2] of under 30% and an Activity [3] of under 50%.

`CCN(CC)c1ccc(CCNc2c(Nc3ccc(Cl)cc3)c(=O)c2=O)cc1` showed an IC50 [1] of over 10 µM, an Activity [2] of under 30% and an Activity [3] of under 50%.

`Cc1ccccc1CCNc1c(Nc2ccc(Cl)cc2)c(=O)c1=O` showed an IC50 [1] of 1.26 µM, an Activity [2] of under 30% and an Activity [3] of under 50%.

With `COc1ccc(CCNc2c(Nc3ccc(Cl)cc3)c(=O)c2=O)cc1` the IC50 [1] was 0.525 µM, the Activity [2] was under 30% and the Activity [3] was under 50%.

`O=c1c(NCCc2cccc(F)c2)c(Nc2ccc(Cl)cc2)c1=O` gave an IC50 [1] of 0.282 µM, an Activity [2] of under 30% and an Activity [3] of under 50%.

Work on `O=c1c(NCCc2ccc(F)cc2)c(Nc2ccc(Cl)cc2)c1=O` yielded an Activity [2] of under 30% and an Activity [3] of under 50%.

For `O=c1c(NCCc2ccc(C(F)(F)F)cc2)c(Nc2ccc(Cl)cc2)c1=O`, the Activity [2] was under 30% and the Activity [3] was under 50%.

Compound `O=c1c(NCCc2ccccc2C(F)(F)F)c(Nc2ccc(Cl)cc2)c1=O` has an Activity [2] of under 30% and an Activity [3] of under 50%.

Compound `O=C(Nc1ccc(Cl)cc1)Nc1cccc(-c2cccc(N3CCCC3)n2)c1` has an Activity [3] of under 50%.

Work on `O=c1c(NCCc2cccc(Cl)c2)c(Nc2ccc(Cl)cc2)c1=O` yielded an IC50 [4] of 0.214 µM, an IC50 [5] of 0.148 µM and an EC50 [6] of 0.692 µM. The t1/2 [7] was 15.8 min, the CLH [8] was 87.8 µL/min/mg and the t1/2 [9] was 88.3 min. The CLH [10] was 39.9 µL/min/mg, the solubility kinetic at 2 h [11] was under 1 µg/mL and the Papp [12] was 3.1 10^-6 cm/s. For the same compound, the Papp [13] was 6.4 10^-6 cm/s, the PPB [14] was over 99% and the PB [15] was over 99%. The PPB [16] was over 99%, the concentration at 5 min [17] was 1240 ng/mL and the Drug excretion [18] was “Active”. For the same compound, the t1/2 [19] was 30.6 min, the concentration at 0.25 h [20] was 8.7 ng/mL and the concentration at 0.5 h [21] was 11.7 ng/mL. It also gave a concentration at 1 h [22] of 12.1 ng/mL, a concentration at 8 h [23] of 4.6 ng/mL and a concentration at 0.25 h [24] of 173 ng/mL. It also gave a concentration at 0.5 h [25] of 59.5 ng/mL, a concentration at 1 h [26] of 93.8 ng/mL and a concentration at 8 h [27] of 54.8 ng/mL.

`Cc1ccc(CCNc2c(Nc3ccc(Cl)cc3)c(=O)c2=O)cc1C` showed an IC50 [1] of 0.427 µM, an Activity [2] of under 30% and an Activity [3] of under 50%.

For `COc1cccc(CCNc2c(Nc3ccc(Cl)cc3)c(=O)c2=O)c1`, the Activity [2] was under 30% and the Activity [3] was under 50%.

`Cc1ccc(CCNc2c(Nc3ccc(Cl)cc3)c(=O)c2=O)cc1` gave an IC50 [1] of 0.158 µM, an Activity [2] of under 30% and an Activity [3] of under 50%. For the same compound, the IC50 [4] was 0.646 µM.

For `O=c1c(Nc2ccc(Cl)cc2)c(N2CCN(c3ccc(Cl)cc3)CC2)c1=O`, the IC50 [1] was over 10 µM, the Activity [2] was under 30% and the Activity [3] was under 50%.

With `O=c1c(NCCc2ccc(Cl)cc2)c(Nc2ccc(Cl)cc2)c1=O` the Activity [2] was under 30% and the Activity [3] was under 50%.

For `O=c1c(NCCc2cccc(O)c2)c(Nc2ccc(Cl)cc2)c1=O`, the IC50 [1] was over 10 µM, the Activity [2] was under 30% and the Activity [3] was under 50%.

In the case of `O=c1c(NCCc2ccc(Cl)c(Cl)c2)c(Nc2ccc(Cl)cc2)c1=O`, the Activity [2] is reported as under 30% and the Activity [3] is reported as under 50%.

With `COc1ccccc1CCNc1c(Nc2ccc(Cl)cc2)c(=O)c1=O` the Activity [2] was under 30% and the Activity [3] was under 50%.

`CN(C)c1cccc(CCNc2c(Nc3ccc(Cl)cc3)c(=O)c2=O)c1` gave an Activity [2] of under 30% and an Activity [3] of under 50%.

Compound `O=c1c(NCCc2ccc(Cl)cc2Cl)c(Nc2ccc(Cl)cc2)c1=O` has an Activity [3] of under 50%.

Work on `Cc1cccc(CCNc2c(Nc3ccc(Cl)cc3)c(=O)c2=O)c1` yielded an IC50 [1] of 0.195 µM, an Activity [2] of under 30% and an Activity [3] of under 50%. For the same compound, the IC50 [4] was 0.912 µM.

`O=c1c(NCCCc2ccccc2)c(Nc2ccc(Cl)cc2)c1=O` gave an IC50 [1] of 0.871 µM, an Activity [2] of under 30% and an Activity [3] of under 50%.

`CN(C)c1ccc(CCNc2c(Nc3ccc(Cl)cc3)c(=O)c2=O)cc1` showed an IC50 [1] of 0.501 µM, an Activity [2] of under 30% and an Activity [3] of under 50%. It also gave an IC50 [4] of 0.617 µM.

Compound `O=c1c(NCCc2ccccc2F)c(Nc2ccc(Cl)cc2)c1=O` has an IC50 [1] of 0.269 µM, an Activity [2] of under 30% and an Activity [3] of under 50%. It also gave an IC50 [28] of 6.61 µM and an IC50 [4] of 5.62 µM.

Work on `O=c1c(NCCc2ccccc2Cl)c(Nc2ccc(Cl)cc2)c1=O` yielded an IC50 [1] of 0.832 µM, an Activity [2] of under 30% and an Activity [3] of under 50%.

`O=c1c(NCCc2ccncc2)c(Nc2ccc(Cl)cc2)c1=O` gave an Activity [2] of under 30% and an Activity [3] of under 50%.

With `O=c1c(NCCc2ccc(F)cc2F)c(Nc2ccc(Cl)cc2)c1=O` the IC50 [1] was 0.912 µM, the Activity [2] was under 30% and the Activity [3] was under 50%.

For `O=c1c(NCCc2ccc(N3CCCC3)cc2)c(Nc2ccc(Cl)cc2)c1=O`, the Activity [2] was under 30% and the Activity [3] was under 50%.

`O=c1c(NCCc2ccc(N3CCC3)cc2)c(Nc2ccc(Cl)cc2)c1=O` showed an Activity [2] of under 30% and an Activity [3] of under 50%.
